Read-outs that look alike come from different tables or passages of the source.
Columns and labels:
[1] = tested on: MaTu human mammary carcinoma xenograft; conditions: for tumors showing signs of re-growth: ˜3 months after cessation, 10 mice per group; for animals remained tumor-free: ˜90 days after cessation
Method: Anti-MN antibodies were conjugated to cytotoxic small molecules using protocols that are known in the art (e.g., Liu, et al., Proc. Natl. Acad. Sci. 93:8618-8623, 1996). Human mammary xenograft, MaTu cells were maintained as adherent cultures in RPMI supplemented with 10% FBS. Ncr nude mice (8-12 weeks of age) were inoculated subcutaneously in the right flank with 5×10^6 cells in 0.1 mL of 80% matrigel/20% HBSS. When tumors reached an average size of ˜180 mg (6 days), treatment was initiated. Monoclonal antibodies conjugated to cytotoxic small molecules were administered i.v. once every four days (Q4Dx3) at a dose of 10 mg/kg. Control mice were treated with PBS or an unconjugated monoclonal antibody. Daily examinations into the health status of each animal were conducted. Each experimental group consisted of 10 mice and the dosing volume was 0.1 mL/10 g body weight. The length and width of each tumor was measured by using an electronic caliper 2-3 times per week and tumor weights (mg) were calculated based on the formula of [length (mm)×width (mm)^2]/2. All data, including daily observations, obtained throughout the course of the study were documented. Tumor growth inhibition (TGI) was calculated as 1−T/C×100, where T=final tumor weights from a treated group, and C=final tumor weights from the control group.
The in vivo anti-tumor effect of 3ee9/MMAE was examined in 6 different human xenograft tumor models. These models were established through subcutaneous implantation of human tumor cells into female athymic NCr (nu/nu) mice (Taconic, N.Y.). The human tumor xenograft models evaluated included the MaTu human mammary carcinoma model, the HT-29 and Colo-205 human colo-rectal carcinoma (CRC) models, PC3MM2 prostate carcinoma model, the HCT-15 multi-drug resistant (P-gp) CRC model, and the MiaPaCa2 human pancreatic model. PBS was used as a vehicle, and dosing solutions were prepared fresh daily. The dosing volume was 0.1 mL/10 g (10 mL/kg).
The length and width of each tumor were measured using an electronic caliper 2-3 times per week, and tumor weights (mg) were calculated based on the formula of [length (mm)×width (mm)^2]/2. All data, including daily observations, obtained throughout the course of the study were documented in Anti-tumor Data Acquisition System (ADAS). […] Tumor growth inhibition (TGI) was calculated as (1-T/C)×100, where T=final tumor weights from a treated group after the last dose, and C=final tumor weights from the control group after the last dose. In addition, anti-tumor efficacy was measured as the incidence of responses (or responders or regressions) defined as tumors with ≦50% of their initial size. A minimum duration of 7 days is required for a response to be considered durable.
Human mammary xenograft, MaTu cells were maintained as adherent cultures in RPMI supplemented with 10% FBS. NCr nude mice (8-12 weeks of age) were inoculated subcutaneously in the right flank with 5×10^6 cells in 0.1 mL of 80% matrigel/20% HBSS. When tumors reached an average size of ˜180 mg (7 days), treatment was initiated. […] Control mice were treated with PBS or an un-conjugated monoclonal antibody at a dose of 10 mg/kg.
Daily examinations into the health status of each animal were conducted. Each experimental group consisted of 10 mice, and the dosing volume was 0.1 mL/10 g body weight. The length and width of each tumor was measured by using an electronic caliper 2-3 times per week, and tumor weights (mg) were calculated based on the formula of [length (mm)×width (mm)^2]/2. All data, including daily observations, obtained throughout the course of the study were documented. Tumor growth inhibition (TGI) was calculated as 1−T/C×100, where T=final tumor weights from a treated group, and C=final tumor weights from the control group.

[2] = tested on: HT-29 human CRC xenograft; experiment: HT-29 subcutaneous xenograft model; assay type: in vivo, athymic NCr (nu/nu) mice; conditions: for TGI: end of dosing
Method: When tumors reached an average size of ˜120 mg (5 days), treatment was initiated. […] In addition, MMAE was assessed as a free drug at a dose of 0.1, 0.2 and 1 mg/kg. The 0.1 and 0.2 mg/Kg doses of MMAE represent equivalent amounts of this drug to those present on 5 and 10 mg/Kg 3ee9/MMAE respectively.
Anti-tumor effect of 3ee9/MMAE was also assessed in varying schedules, i.e., once a week dosing for total of two doses (Q7Dx2, FIG. 20) and a single dose at the time of staging (Q1Dx1, FIG. 21). In both schedules, 3ee9/MMAE was dosed at 0.625, 1.25, 2.5, 5 and 10 mg/kg.

3ee9/MMAE: human anti-MN IgG1 antibody 3ee9 conjugated to Monomethylauristatin E (MMAE)
body weight loss ([1]; 60 mg/kg i.v. Q4Dx3): ~20% | lethality ([1]; 60 mg/kg i.v. Q4Dx3): 10% | maximum tolerated dose (MTD) ([1]; MaTu tumor-bearing mice, i.v. Q4Dx3): 60 mg/kg | therapeutic index (MTD divided by MED) ([1]; MaTu xenograft): ~96 | tumor regression ([1]; MaTu, 0.625 mg/kg Q4Dx3): No tumor regression | inhibition of tumor growth ([1]; MaTu, 0.625 mg/kg Q4Dx3, end of dosing): 62% | time tumors remained stable after cessation of treatment ([1]; MaTu, 1 mg/kg Q4Dx3): ~2 weeks | tumors responsive to treatment ([1]; MaTu, 1 mg/kg Q4Dx3): 30% | TGI ([1]; MaTu, 1 mg/kg i.v. Q4Dx3, end of dosing): 67% | animals exhibiting tumor regressions ([1]; MaTu, 1.25 mg/kg Q4Dx3): 80% | inhibition of tumor growth ([1]; MaTu, 1.25 mg/kg Q4Dx3, end of dosing): 81% | animals responded to treatment ([1]; MaTu, 2.5 mg/kg and higher Q4Dx3): 100% | TGI ([1]; MaTu, 3 mg/kg i.v. Q4Dx3, end of dosing): 72% | tumors showing signs of re-growth ([1]; MaTu, 3 mg/kg): 3 tumors | animals remained tumor-free ([1]; MaTu, 3 mg/kg): 70% | TGI ([1]; MaTu, 10 mg/kg i.v. Q4Dx3, end of dosing): 78% | tumors showing signs of re-growth ([1]; MaTu, 10 mg/kg): 1 tumors | animals remained tumor-free ([1]; MaTu, 10 mg/kg): 90% | tolerability ([1]; MaTu, 1, 3 and 10 mg/kg i.v. Q4Dx3): well-tolerated at all doses examined | inhibition of tumor growth ([1]; MaTu, 2.5, 5, 10, 30 and 60 mg/kg Q4Dx3): ~90% | animals responded ([1]; MaTu, 3 and 10 mg/kg Q4Dx3): 100% | minimum efficacious dose (MED) ([1]; MaTu, i.v. Q4Dx3): 0.625 mg/kg | In vivo activity: MED ([1]; Table 4 profile): 1 mg/kg | In vivo activity: MTD ([1]; Table 4 profile): 60 mg/kg | tolerability ([1]; all other treatment groups (0.625 to 30 mg/kg) Q4Dx3): well tolerated | TGI ([2]; HT-29, 0.625 mg/kg Q4Dx3): 54% | % Inhibition (1-T/D)*100 (Day 18) ([2]; HT-29, 0.625 mg/kg, Q1D × 1): 42% | Percent Regressions ([2]; HT-29, 0.625 mg/kg, Q1D × 1): 0% | % Inhibition (1-T/D)*100 (Day 18) ([2]; HT-29, 0.625 mg/kg, Q4D × 3): 54% | Percent Regressions ([2]; HT-29, 0.625 mg/kg, Q4D × 3): 0% | % Inhibition (1-T/D)*100 (Day 18) ([2]; HT-29, 0.625 mg/kg, Q7D × 2): 48% | Percent Regressions ([2]; HT-29, 0.625 mg/kg, Q7D × 2): 0% | animals showing regressions ([2]; HT-29, 1.25 mg/kg Q4Dx3): 20% | TGI ([2]; HT-29, 1.25 mg/kg Q4Dx3): 72% | % Inhibition (1-T/D)*100 (Day 18) ([2]; HT-29, 1.25 mg/kg, Q1D × 1): 48% | Percent Regressions ([2]; HT-29, 1.25 mg/kg, Q1D × 1): 0% | % Inhibition (1-T/D)*100 (Day 18) ([2]; HT-29, 1.25 mg/kg, Q4D × 3): 72% | Percent Regressions ([2]; HT-29, 1.25 mg/kg, Q4D × 3): 2% | % Inhibition (1-T/D)*100 (Day 18) ([2]; HT-29, 1.25 mg/kg, Q7D × 2): 71% | Percent Regressions ([2]; HT-29, 1.25 mg/kg, Q7D × 2): 0% | regressions ([2]; HT-29, 2.5 mg/kg Q4Dx3): 90% | TGI ([2]; HT-29, 2.5 mg/kg Q4Dx3): 97% | % Inhibition (1-T/D)*100 (Day 18) ([2]; HT-29, 2.5 mg/kg, Q1D × 1): 93% | Percent Regressions ([2]; HT-29, 2.5 mg/kg, Q1D × 1): 5% | % Inhibition (1-T/D)*100 (Day 18) ([2]; HT-29, 2.5 mg/kg, Q4D × 3): 97% | Percent Regressions ([2]; HT-29, 2.5 mg/kg, Q4D × 3): 9% | % Inhibition (1-T/D)*100 (Day 18) ([2]; HT-29, 2.5 mg/kg, Q7D × 2): 92% | TGI ([2]; HT-29, 5 mg/kg Q4Dx3): 100% | % Inhibition (1-T/D)*100 (Day 18) ([2]; HT-29, 5 mg/kg, Q1D × 1): 98% | Percent Regressions ([2]; HT-29, 5 mg/kg, Q1D × 1): 8% | % Inhibition (1-T/D)*100 (Day 18) ([2]; HT-29, 5 mg/kg, Q4D × 3): 100% | Percent Regressions ([2]; HT-29, 5 mg/kg, Q4D × 3): 10% | % Inhibition (1-T/D)*100 (Day 18) ([2]; HT-29, 5 mg/kg, Q7D × 2): 96% | Percent Regressions ([2]; HT-29, 5 mg/kg, Q7D × 2): 7% | TGI ([2]; HT-29, 10 mg/kg Q4Dx3): 100% | % Inhibition (1-T/D)*100 (Day 18) ([2]; HT-29, 10 mg/kg, Q1D × 1): 100% | Percent Regressions ([2]; HT-29, 10 mg/kg, Q1D × 1): 10% | % Inhibition (1-T/D)*100 (Day 18) ([2]; HT-29, 10 mg/kg, Q4D × 3): 100% | Percent Regressions ([2]; HT-29, 10 mg/kg, Q4D × 3): 10% | % Inhibition (1-T/D)*100 (Day 18) ([2]; HT-29, 10 mg/kg, Q7D × 2): 100% | Percent Regressions ([2]; HT-29, 10 mg/kg, Q7D × 2): 10% | tolerability ([2]; HT-29, 0.625 to 10 mg/kg i.v. Q4Dx3): well tolerated at all doses examined | responses ([2]; HT-29, 5 and 10 mg/kg Q4Dx3): 100% | anti-tumor effect in varying schedules ([2]; HT-29, Q7Dx2 and Q1Dx1, 0.625 to 10 mg/kg): highly effective in inhibiting the growth | anti-tumor effects ([2]; HT-29 human colo-rectal cancer xenograft model): anti-tumor effects were seen
